Here are results for 1 molecule from patent publication US20190328749A1, “FORMULATION OF LONG-ACTING LEVONORGESTREL BUTANOATE INJECTABLE DEPOT SUSPENSION” (Eastern Virginia Medical School, priority 2016, published 2019).

Where “and” joins values, the source holds several entries; their conditions need not be identical. Equal values may be shown once.

A short description of series [1]: uniformity of LB particle size distribution and concentration after dispersion/mixing and homogenization. It counts as physicochemical. The settings on record: post LB dispersion in Part II & mixing with Part I.
Series [2] in a line: particle size distribution of micronized LB drug substance (dry milled, wet milled, spray dried). In kind it is physicochemical. As for the experimental part:
FIG. 3 and FIG. 4 show typical particle size distributions and photomicrographs of LB drug substance prepared by dry milling. The dry milled LB powder was dispersed in 1% polysorbate 20 and three replicate measurements of the particle size distribution were made.
FIG. 5 and FIG. 6 show typical particle size distributions and photomicrographs of LB drug substance prepared by wet milling. After wet milling for 15 minutes, the LB suspension was sampled and three replicate measurements of the particle size distribution were made.
FIG. 7 and FIG. 8 show typical particle size distributions and photomicrographs of LB drug substance prepared by spray drying processes. The spray dried LB powder was dispersed in 0.5% polysorbate 80 and three replicate measurements of the particle size distribution were made.

The subject of series [3] is ovulation. Put plainly: monkey study, time to return to ovulation / duration of action. In kind it is in vivo, non-human primates.
Series [4] concerns ovulation. The note with it: women, single dose of 50 mg, micronized aqueous suspension, injected; cited from earlier work.
Where [5] appears, read: dry milled LB powder dispersed in 1% polysorbate 20, replicate runs.
The mark [6] stands for this setting: spray dried LB powder dispersed in 0.5% polysorbate 80, replicate runs.
Where [7] appears, read: wet milled 15 minutes, LB suspension, replicate runs.

With `C#C[C@]1(OC(=O)CCC)CC[C@H]2[C@@H]3CCC4=CC(=O)CC[C@@H]4[C@H]3CC[C@@]21CC` [LB, Levonorgestrel Butanoate], in series [1] (15 minutes), the “Assay Results - Concentration of LB, Average” value is 20.03 mg/mL; the “Particle Size D50” value is listed as 6.3 μm; the “Particle Size VMD” value came out at 8.1 μm; the “particle size D10” value stood at 1.4 μm. Also, the “particle size D90” value in series [1] (15 minutes) was 17.1 μm. Also, in series [1] (30 minutes), the “Assay Results - Concentration of LB, Average” value is reported as 20.00 mg/mL; the “Particle Size D50” value is listed as 6.3 μm; the “Particle Size VMD” value is recorded as 8.1 μm; the “particle size D10” value turned out to be 1.4 μm. For the same molecule, the “particle size D90” value in series [1] (30 minutes) was determined as 17.2 μm. Besides, in series [2] (setting [5]), the “particle size D10” value is 5.3 μm and 5.1 μm and 4.3 μm; the “particle size D90” value was 89.5 μm and 62.2 μm and 65.0 μm; the “particle size Mean” value is 38.6 μm and 30.7 μm and 29.9 μm; the “particle size Median” value was 23.1 μm and 22.7 μm and 18.6 μm. In addition, in series [2] (setting [6]), the “particle size D10” value was 8.3 μm and 8.2 μm (2×); the “particle size D90” value was 24.7 μm and 24.8 μm (2×); the “particle size Median” value came to 15.8 μm. In series [2] (setting [7]), the “particle size D10” value was 5.4 μm (2×) and 4.3 μm; the “particle size D90” value was 47.3 μm and 50.9 μm and 54.9 μm; the “particle size Mean” value is 23.2 μm and 25.2 μm and 26.9 μm; the “particle size Median” value was 18.0 μm and 18.4 μm and 21.0 μm. For the same molecule, the “time to return to ovulation” value in series [3] is “increases with increasing particle size of LB in the formulation and in many cases exceeding six months”. In addition, the “suppression of ovulation, duration” value in series [4] is listed as 5-6 months.
